In US8557737B2, “Methods of altering poppy characteristics” (priority 2005, dated 2013):

How the values were obtained:
Type in all cases: in vivo, Papaver somniferum
[1] = tested on: poppy crops; experiment: Example 10: field trial, triasulfuron and metsulfuron-methyl, morphine crop
Protocol: (§1) All trials were conducted on poppy crops. Seed was treated with Thiram (5.6 g of Thiram 800/kg seed) and Apron (4 g/kg) and sown at a rate of approximately 750 g/ha. Fertilisers were applied at sowing. Most commonly, either 50:50 lime:superphosphate/triple superphosphate at 125 kg/ha, or lime:superphosphate at 250 kg/ha, were mixed with seed and drilled at a depth of 15 mm. In the same operation, NPK (nitrogen:phosphorus:potassium), at various rates, was banded 75 mm below the seed, unless otherwise stated. All crops were subjected to herbicide sprays for weed control, fungicide sprays for disease control, insecticide sprays if appropriate and were irrigated as required.
(§2) All spray applications were made with a precision sprayer, using Silvan Lurmark flat-fan, low-drift nozzles (LD110-0015). Spray equipment was calibrated to deliver 153 L water/ha.
(§3) At harvest, a 2 m×4 m quadrat was placed in each plot (3 m×6 m, unless otherwise stated) and capsules hand-picked from this area. Capsules were broken up, seed and capsule material separated and weighed. Capsule moisture readings were taken with a moisture meter. Alkaloid yield data were calculated on Pesticide Research Manager (version 5 for Windows) using the formulae below. Briefly, capsule weight was adjusted for moisture to a dry weight, 5% of seed weight was added to this (this amount of capsule material regularly occurs in seed samples after processing) to give a capsule weight per plot. Seed weight was adjusted to 95% of crude weight. Straw weights were determined by multiplying dry capsule weight by 1.3 (estimated amount of stem material in a commercial harvest) and adjusted to 11% moisture. When Lontrel was applied to crops exact capsule and seed weight data were entered. Analyses of variance and a Multiple Range Test were performed on data using Pesticide Research Manager. Significant differences (P=0.05) between treatments are denoted by different lower case letters adjacent to treatment means in the tables of results.
[…] Treatment sprays were applied to crop at ground cover, mid run-up and bud-emergence, respectively.

[2] = tested on: poppy crops; experiment: Example 16: field trial, metsulfuron-methyl, mesosulfuron-methyl and triasulfuron at row cover and ground cover/early run-up, morphine crop; conditions: for PLANT HEIGHT: 5 weeks after last application
Protocol: as §1, §2
as §3, with “Manager.” for “Manager. Significant differences (P=0.05) between treatments are denoted by different lower case letters adjacent to treatment means in the tables of results.”
Trial to evaluate applications of metsulfuron-methyl (Compound 1), mesosulfuron-methyl (Compound 2) and triasulfuron (Compound 3), in a morphine crop. Treatment sprays were applied to crop at row cover and ground cover/early run-up, respectively. Plant heights were assessed 5 weeks after last application and lodging was assessed at capsule harvest.

[3] = tested on: poppy crops; experiment: Example 17: field trial, triasulfuron, mesosulfuron-methyl and metsulfuron-methyl at early run-up and mid-late run-up, morphine crop; conditions: for PLANT HEIGHT: 6 weeks after last application; for LODGING: at capsule harvest
Protocol: as §1, §2
as §3, with “Manager.” for “Manager. Significant differences (P=0.05) between treatments are denoted by different lower case letters adjacent to treatment means in the tables of results.”
Trial to evaluate applications of triasulfuron, mesosulfuron-methyl and metsulfuron-methyl, in a morphine crop. Treatment sprays were applied to with crop at early run-up and mid-late run-up, respectively. Plant heights were measured on 6 weeks after last application and lodging was assessed at capsule harvest.

[4] = tested on: poppy crops; experiment: Example 18: field trial, triasulfuron, mesosulfuron-methyl and metsulfuron-methyl at row cover, mid run-up and early hook, morphine crop; conditions: MRU and LRU; for PLANT HEIGHT: 5 weeks after last application; for LODGING: at capsule harvest
Protocol: as §1, §2
as §3, with “Manager.” for “Manager. Significant differences (P=0.05) between treatments are denoted by different lower case letters adjacent to treatment means in the tables of results.”
Trial to evaluate applications of triasulfuron, mesosulfuron-methyl and metsulfuron-methyl, in a morphine crop. […] Plant heights were measured 5 weeks after last application and lodging at capsule harvest.

[5] = COMPOUND 3 263 MG/HA + PULSE .2 % V/V at GC and RU
[6] = COMPOUND 3 525 MG/HA + PULSE .2 % V/V at GC (one application)
[7] = COMPOUND 3 525 MG/HA + PULSE .2 % V/V at GC and RU
[8] = Trt 3: COMPOUND 3 75 MG/HA + PULSE .2% V/V at RC and GC/ERU
[9] = Trt 4: COMPOUND 3 150 MG/HA + PULSE .2% V/V at RC and GC/ERU
[10] = Trt 3: COMPOUND 3 75 MG/HA + PULSE .2% V/V at ERU and M-LRU
[11] = Trt 4: COMPOUND 3 150 MG/HA + PULSE .2% V/V at ERU and M-LRU
[12] = Trt 3: COMPOUND 3 75 MG/HA + PULSE .2% V/V at RC
[13] = Trt 4: COMPOUND 3 150 MG/HA + PULSE .2% V/V at RC

SMILES: COc1nc(C)nc(NC(=O)NS(=O)(=O)c2ccccc2OCCCl)n1 [Compound 3, triasulfuron]
- CAPSULE/SEED RATIO [1, 5]: 3.170 b
- CROP WEIGHT [1, 5]: 0.79 d t/ha
- HEIGHT [1, 5]: 71.0 cm·days
- MORPHINE [1, 5]: 13.17 d kg/ha
- SEED [1, 5]: 141 c kg/ha
- STRAW [1, 5]: 644 d kg/ha
- STRAW MORPHINE [1, 5]: 2.03 b %
- CAPSULE/SEED RATIO [1, 6]: 1.762 c
- CROP WEIGHT [1, 6]: 1.40 c t/ha
- HEIGHT [1, 6]: 75.6 c cm
- MORPHINE [1, 6]: 20.55 b kg/ha
- SEED [1, 6]: 408 b kg/ha
- STRAW [1, 6]: 992 b kg/ha
- STRAW MORPHINE [1, 6]: 2.06 b %
- CAPSULE/SEED RATIO [1, 7]: 1.338 days
- CROP WEIGHT [1, 7]: 0.17 e t/ha
- HEIGHT [1, 7]: 55.0 e cm
- MORPHINE [1, 7]: 1.99 e kg/ha
- SEED [1, 7]: 60 c kg/ha
- STRAW [1, 7]: 113 e kg/ha
- STRAW MORPHINE [1, 7]: 1.76 c %
- CAPS/SEED RATIO [2, 8]: 1.259 b
- CROP WEIGHT [2, 8]: 3.47 b t/ha
- MORPHINE [2, 8]: 49.16 a kg/ha
- SEED [2, 8]: 1233 c kg/ha
- STRAW [2, 8]: 2211 a kg/ha
- STRAW MORPHINE [2, 8]: 2.21 a %
- PLANT HEIGHT [2, 8]: 103.4 b cm
- CAPS/SEED RATIO [2, 9]: 1.959 a
- CROP WEIGHT [2, 9]: 2.18 c t/ha
- MORPHINE [2, 9]: 32.34 c kg/ha
- SEED [2, 9]: 581 d kg/ha
- STRAW [2, 9]: 1589 c kg/ha
- STRAW MORPHINE [2, 9]: 2.03 b %
- PLANT HEIGHT [2, 9]: 88.6 c cm
- CAPS/SEED RATIO [3, 10]: 3.677 c
- CROP WEIGHT [3, 10]: 2.79 b t/ha
- MORPHINE [3, 10]: 51.94 a kg/ha
- SEED [3, 10]: 451 b kg/ha
- STRAW [3, 10]: 2299 a kg/ha
- STRAW MORPHINE [3, 10]: 2.26 b %
- PLANT HEIGHT [3, 10]: 100.2 bc cm
- LODGING [3, 10]: 1.6 b %
- CAPS/SEED RATIO [3, 11]: 6.016 b
- CROP WEIGHT [3, 11]: 1.71 c t/ha
- MORPHINE [3, 11]: 25.78 c kg/ha
- SEED [3, 11]: 175 c kg/ha
- STRAW [3, 11]: 1331 c kg/ha
- STRAW MORPHINE [3, 11]: 1.93 d %
- PLANT HEIGHT [3, 11]: 90.4 cm·days
- LODGING [3, 11]: 11.9 a %
- CAPS/SEED RATIO [4, 12]: 1.358 b
- CROP WEIGHT [4, 12]: 3.43 a t/ha
- MORPHINE [4, 12]: 51.88 a kg/ha
- SEED [4, 12]: 1161 b kg/ha
- STRAW [4, 12]: 2217 a kg/ha
- STRAW MORPHINE [4, 12]: 2.33 a %
- PLANT HEIGHT [4, 12]: 93.0 c cm
- LODGING [4, 12]: 2.2 a %
- CAPS/SEED RATIO [4, 13]: 2.664 a
- CROP WEIGHT [4, 13]: 2.32 c t/ha
- MORPHINE [4, 13]: 37.62 c kg/ha
- SEED [4, 13]: 482 c kg/ha
- STRAW [4, 13]: 1797 b kg/ha
- STRAW MORPHINE [4, 13]: 2.09 c %
- PLANT HEIGHT [4, 13]: 81.4 cm·days
- LODGING [4, 13]: 2.6 a %
